Measurements published in ChEMBL document CHEMBL4196229, “GPR40 Receptor Agonists for the Treatment of Type 2 Diabetes and Related Diseases” (ACS Med Chem Lett, 2018).

Target: Free fatty acid receptor 1 (Homo sapiens, UniProt O14842)
Assay: Agonist activity at human GPR40 expressed in human 1321N1 cells assessed as IP1 accumulation after 1 hr by HTRF assay
Type: functional, cell-based

Sequence of Free fatty acid receptor 1 (O14842 whole entry): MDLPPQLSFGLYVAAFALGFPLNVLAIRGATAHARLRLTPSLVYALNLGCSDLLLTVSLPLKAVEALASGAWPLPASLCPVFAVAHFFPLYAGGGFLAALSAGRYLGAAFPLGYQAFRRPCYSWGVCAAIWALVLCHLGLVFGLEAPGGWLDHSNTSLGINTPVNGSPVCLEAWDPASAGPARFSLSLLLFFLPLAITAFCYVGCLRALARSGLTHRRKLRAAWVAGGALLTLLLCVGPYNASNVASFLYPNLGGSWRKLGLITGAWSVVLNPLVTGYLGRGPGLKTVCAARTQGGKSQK

Compound	EC50 [nM]
Cc1cc(-c2cccc(=O)n2C)cc(C)c1-c1ccc(F)c2c1CC[C@H]2Nc1ccc([C@H]2C[C@@H]2C(=O)O)nc1	4
CNC(=O)c1cc(C)c(-c2ccc(F)c3c2CC[C@H]3Nc2ccc([C@H]3C[C@@H]3C(=O)O)nc2)c(C)c1	148
Cc1cc(OCC2CCOC2)cc(C)c1-c1ccc(F)c2c1CC[C@H]2Nc1ccc([C@H]2C[C@@H]2C(=O)O)nc1 (stereo not given in full)	7
Cc1cc(OCCC(C)(C)O)cc(C)c1-c1ccc(F)c2c1CC[C@H]2Nc1ccc([C@H]2C[C@@H]2C(=O)O)nc1	11
Cc1cc(-c2nnn(CC(C)(C)O)n2)cc(C)c1-c1ccc(F)c2c1CC[C@H]2Nc1ccc([C@H]2C[C@@H]2C(=O)O)nc1	2
